{"source": "patent US20110064803A1", "about": "“NANOPARTICULATE AND CONTROLLED RELEASE COMPOSITIONS COMPRISING VITAMIN K2” (ELAN PHARMA INTERNATIONAL LIMITED., priority 2005, published 2011)", "origin": "cited, not measured here", "key": {"[1]": {"conditions": "oral"}, "[2]": {"assay": "not given", "remark": "listed apart in the source"}}, "note": "Where two headings read alike, the source gives them in different places."}
{"smiles": "COC(=O)C(c1ccccc1)C1CCCCN1", "note": "(stereo not drawn) [methylphenidate, α-phenyl-2-piperidine acetic acid methyl ester]", "values": [{"measurement": "Persistence of drug effects", "setting": "[1]; conventional IR tablets", "result": "3 to 6", "unit": "h"}, {"measurement": "Persistence of drug effects", "setting": "[1]; extended release formulations", "result": "up to 8 hours"}]}
{"smiles": "CC(C)=CCC/C(C)=C/CC/C(C)=C/CC/C(C)=C/CC1=C(C)C(=O)c2ccccc2C1=O", "note": "[Vitamin K2]", "values": [{"measurement": "Stability to light", "result": "decomposes and the color becomes more intense by light"}, {"measurement": "Solubility in ethanol (99.5)", "setting": "[2]; ethanol (99.5)", "result": "soluble"}, {"measurement": "Solubility in hexane", "setting": "[2]; hexane", "result": "very soluble"}, {"measurement": "Solubility in methanol", "setting": "[2]; methanol", "result": "slightly soluble"}, {"measurement": "Solubility in water", "setting": "[2]; water", "result": "practically insoluble"}]}
